Measured values as given in patent publication US9309283B2, “Prodrugs of peptide epoxy ketone protease inhibitors” (Onyx Therapeutics, Inc., priority 2012, dated 2016).
Values belong to the compound of their own block, whether it stands above or below them.

Legend:
[1] = Conversion of prodrugs by Human Liver S9; type: in vitro ADME
[2] = Buffer conversion rates of prodrugs to Compound B; type: physicochemical
c20s = c20s (Homo sapiens, UniProt P20618+P28074); assay: Purified PI IC50, c20s; type: biochemical
i20s = i20s (Homo sapiens, UniProt P20618+P28062); assay: Purified PI IC50, i20s; type: biochemical
[3] = Conversion to drug in human plasma (%) over time; type: in vitro ADME
[4] = Pharmacokinetic comparison of Compound A and prodrug in mouse; type: in vivo; conditions: dose 5 mg/kg

Structure (SMILES): COC[C@H](NC(=O)c1cnc(C)s1)C(=O)N[C@@H](COC)C(=O)N[C@@H](Cc1ccccc1)C(=O)[C@](C)(O)COS(=O)(=O)C1CCOCC1 [compound 22]
- Buffer pH = 7.4 % Conversion @ 1 hour [2]: 9.8%

Structure (SMILES): COCCOCCOCCOCCC(=O)N/N=C(/[C@H](CC(C)C)NC(=O)[C@H](Cc1ccccc1)NC(=O)[C@H](CC(C)C)NC(=O)[C@H](CCc1ccccc1)NC(=O)CN1CCOCC1)[C@@]1(C)CO1
- Purified PI IC50 Slope c20s (c20s; Table G, * = did not converge): inactive

Structure (SMILES): COC[C@H](NC(=O)c1cnc(C)s1)C(=O)N[C@@H](COC)C(=O)N[C@@H](Cc1ccccc1)/C(=N/OC)[C@@]1(C)CO1
- Purified PI IC50 Slope i20s (i20s; Table H): inactive
- Purified PI IC50 60 minute point i20s (i20s; Table H): inactive
- Purified PI IC50 Slope c20s (c20s; Table H): inactive

Structure (SMILES): CC(C)C[C@H](NC(=O)[C@H](CCc1ccccc1)NC(=O)CN1CCOCC1)C(=O)N[C@@H](Cc1ccccc1)C(=O)N[C@@H](CC(C)C)C(=O)[C@](C)(O)COC(=O)c1c(Cl)cccc1Cl
- Purified PI IC50 Slope c20s (c20s; Table G, * = did not converge): inactive

Structure (SMILES): CC(C)C[C@H](NC(=O)[C@H](CCc1ccccc1)NC(=O)CN1CCOCC1)C(=O)N[C@@H](Cc1ccccc1)C(=O)N[C@@H](CC(C)C)/C(=N/OCC(=O)O)[C@@]1(C)CO1
- Purified PI IC50 Slope i20s (i20s; Table G, * = did not converge): inactive
- Purified PI IC50 Slope c20s (c20s; Table G, * = did not converge): inactive

Structure (SMILES): COC[C@H](NC(=O)c1cnc(C)s1)C(=O)N[C@@H](COC)C(=O)N[C@@H](Cc1ccccc1)C(=O)[C@](C)(O)COP(=O)(c1ccccc1)c1ccccc1
- Purified PI IC50 Slope i20s (i20s; Table H): inactive
- Purified PI IC50 60 minute point i20s (i20s; Table H): inactive
- Purified PI IC50 Slope c20s (c20s; Table H): inactive
- Purified PI IC50 60 minute point c20s (c20s; Table H): inactive

Structure (SMILES): CO/N=C(/[C@H](CC(C)C)NC(=O)[C@H](Cc1ccccc1)NC(=O)[C@H](CC(C)C)NC(=O)[C@H](CCc1ccccc1)NC(=O)CN1CCOCC1)[C@@]1(C)CO1
- Purified PI IC50 Slope i20s (i20s; Table G, * = did not converge): inactive

Structure (SMILES): COC[C@H](NC(=O)c1cnc(C)s1)C(=O)N[C@@H](COC)C(=O)N[C@@H](Cc1ccccc1)C(=O)[C@](C)(O)COC(C)=O
- Purified PI IC50 Slope i20s (i20s; Table H): inactive
- Purified PI IC50 60 minute point i20s (i20s; Table H): inactive
- Purified PI IC50 Slope c20s (c20s; Table H): inactive
- Purified PI IC50 60 minute point c20s (c20s; Table H): inactive

Structure (SMILES): COC[C@H](NC(=O)c1cnc(C)s1)C(=O)N[C@@H](COC)C(=O)N[C@@H](Cc1ccccc1)C(=O)[C@](C)(O)COS(=O)(=O)c1ccc(C)cc1 [compound 21]
- Buffer pH = 7.4 % Conversion @ 1 hour [2]: 20.3%

Structure (SMILES): COCCOCCOCCOCCOCCOCCOCCOCCn1cc(CNC(=O)c2cccc(S(=O)(=O)OCC(C)(O)C(=O)[C@H](CC(C)C)NC(=O)[C@H](Cc3ccccc3)NC(=O)[C@H](CC(C)C)NC(=O)[C@H](CCc3ccccc3)NC(=O)CN3CCOCC3)c2)nn1 (stereo partly drawn)
- Conversion to drug in Human Plasma ([3]; 2 min): 7%
- Conversion to drug in Human Plasma ([3]; 30 min): 63%
- Conversion to drug in Human Plasma ([3]; 1 hr): 100%
- Conversion to drug in Human Plasma ([3]; 2 hr): 95%
- Conversion to drug in Human Plasma ([3]; 4 hr): 80%

Structure (SMILES): COC[C@H](NC(=O)c1cnc(C)s1)C(=O)N[C@@H](COC)C(=O)N[C@@H](Cc1ccccc1)C(=O)[C@](C)(O)COC(=O)c1c(Cl)cccc1Cl
- Purified PI IC50 Slope i20s (i20s; Table H): inactive
- Purified PI IC50 60 minute point i20s (i20s; Table H): inactive
- Purified PI IC50 Slope c20s (c20s; Table H): inactive
- Purified PI IC50 60 minute point c20s (c20s; Table H): inactive

Structure (SMILES): COCCOCCOCCOCCOCCOCCOCCOCCn1cc(COCCCS(=O)(=O)OCC(C)(O)C(=O)[C@H](CC(C)C)NC(=O)[C@H](Cc2ccccc2)NC(=O)[C@H](CC(C)C)NC(=O)[C@H](CCc2ccccc2)NC(=O)CN2CCOCC2)nn1 (stereo partly drawn)
- Conversion to drug in Human Plasma ([3]; 2 min): 2%
- Conversion to drug in Human Plasma ([3]; 30 min): 18%
- Conversion to drug in Human Plasma ([3]; 1 hr): 58%
- Conversion to drug in Human Plasma ([3]; 2 hr): 90%
- Conversion to drug in Human Plasma ([3]; 4 hr): 80%

Structure (SMILES): COC[C@H](NC(=O)c1cnc(C)s1)C(=O)N[C@@H](COC)C(=O)N[C@@H](Cc1ccccc1)C(=O)[C@](C)(O)COS(=O)(=O)Cc1ccccc1 [compound 23]
- Buffer pH = 7.4 % Conversion @ 1 hour [2]: 9.6%

Structure (SMILES): COC[C@H](NC(=O)c1cnc(C)s1)C(=O)N[C@@H](COC)C(=O)N[C@@H](Cc1ccccc1)C(=O)[C@](C)(O)COS(=O)(=O)Cc1ccccc1 [drawing 371]
- Purified PI IC50 Slope i20s (i20s; Table H): inactive

Structure (SMILES): CC(C)C[C@H](NC(=O)[C@H](CCc1ccccc1)NC(=O)CN1CCOCC1)C(=O)N[C@@H](Cc1ccccc1)C(=O)N[C@@H](CC(C)C)C(=O)[C@@]1(C)CO1 [Cmpd A, (S)-4-methyl-N—((S)-1-(((S)-4-methyl-1-((R)-2-methyloxiran-2-yl)-1-oxopentan-2-yl)amino)-1-oxo-3-phenylpropan-2-yl)-2-((S)-2-(2-morpholinoacetamido)-4-phenylbutanamido)pentanamide]
- [Cmpd A] ([4]; time 1 hr): 0.008 µM
- [Cmpd A] ([4]; time 4 hr): BLOQ
- [Cmpd A] ([4]; time 6 hr): BLOQ
- [Cmpd A] ([4]; time 24 hr): BLOQ

Second part, the compound after the results:

- Human Liver S9 % Conversion @ 1 hour [1]: 11%
Structure (SMILES): COC[C@H](NC(=O)c1cnc(C)s1)C(=O)N[C@@H](COC)C(=O)N[C@@H](Cc1ccccc1)C(=O)[C@@](C)(CI)OC(=O)CCCOC(C)=O [20-13]

- Human Liver S9 % Conversion @ 1 hour [1]: 24%
Structure (SMILES): CCOC(=O)C(=O)O[C@](C)(CI)C(=O)[C@H](Cc1ccccc1)NC(=O)[C@H](COC)NC(=O)[C@H](COC)NC(=O)c1cnc(C)s1 [20-16]

- Human Liver S9 % Conversion @ 1 hour [1]: 28%
Structure (SMILES): COC[C@H](NC(=O)c1cnc(C)s1)C(=O)N[C@@H](COC)C(=O)N[C@@H](Cc1ccccc1)C(=O)[C@@](C)(CI)OC(=O)OCc1ccc(OC(C)=O)cc1 [20-22]

- Buffer pH = 7.4 % Conversion @ 1 hour [2]: 23%
Structure (SMILES): COC[C@H](NC(=O)c1cnc(C)s1)C(=O)N[C@@H](COC)C(=O)N[C@@H](Cc1ccccc1)C(=O)[C@](C)(O)CBr [20-3]

- Human Liver S9 % Conversion @ 1 hour [1]: 1%
Structure (SMILES): CCOC(=O)CCC(=O)O[C@](C)(CI)C(=O)[C@H](Cc1ccccc1)NC(=O)[C@H](COC)NC(=O)[C@H](COC)NC(=O)c1cnc(C)s1 [20-17]

- Human Liver S9 % Conversion @ 1 hour [1]: 14%
Structure (SMILES): CCOC(=O)O[C@](C)(CI)C(=O)[C@H](Cc1ccccc1)NC(=O)[C@H](COC)NC(=O)[C@H](COC)NC(=O)c1cnc(C)s1 [20-25]

- Buffer pH = 7.4 % Conversion @ 1 hour [2]: 24%
Structure (SMILES): COC[C@H](NC(=O)c1cnc(C)s1)C(=O)N[C@@H](COC)C(=O)N[C@@H](Cc1ccccc1)C(=O)[C@](C)(O)CI [20-1]

- Buffer pH = 7.4 % Conversion @ 1 hour [2]: 0%
Structure (SMILES): COC[C@H](NC(=O)c1cnc(C)s1)C(=O)N[C@@H](COC)C(=O)N[C@@H](Cc1ccccc1)C(=O)[C@](C)(O)CCl [20-2]

- Buffer pH = 7.4 % Conversion @ 1 hour [2]: 13.2%
Structure (SMILES): COC[C@H](NC(=O)c1cnc(C)s1)C(=O)N[C@@H](COC)C(=O)N[C@@H](Cc1ccccc1)C(=O)[C@](C)(O)COS(=O)(=O)c1ccc(F)c(F)c1 [20-5]

- Human Liver S9 % Conversion @ 1 hour [1]: 30%
Structure (SMILES): COC[C@H](NC(=O)c1cnc(C)s1)C(=O)N[C@@H](COC)C(=O)N[C@@H](Cc1ccccc1)C(=O)[C@@](C)(CI)OC(=O)OCc1oc(=O)oc1C [20-15]

- Buffer pH = 7.4 % Conversion @ 1 hour [2]: 10.8%
Structure (SMILES): CCCCCCCCS(=O)(=O)OC[C@@](C)(O)C(=O)[C@H](Cc1ccccc1)NC(=O)[C@H](COC)NC(=O)[C@H](COC)NC(=O)c1cnc(C)s1 [20-8]

- Buffer pH = 7.4 % Conversion @ 1 hour [2]: 5.7%
Structure (SMILES): COC[C@H](NC(=O)c1cnc(C)s1)C(=O)N[C@@H](COC)C(=O)N[C@@H](Cc1ccccc1)C(=O)[C@](C)(O)COS(=O)(=O)CC(F)F [20-6]

- Human Liver S9 % Conversion @ 1 hour [1]: 32%
Structure (SMILES): COC[C@H](NC(=O)c1cnc(C)s1)C(=O)N[C@@H](COC)C(=O)N[C@@H](Cc1ccccc1)C(=O)[C@@](C)(CI)OC(=O)Oc1ccccc1 [20-26]

- Human Liver S9 % Conversion @ 1 hour [1]: 7%
Structure (SMILES): COC[C@H](NC(=O)c1cnc(C)s1)C(=O)N[C@@H](COC)C(=O)N[C@@H](Cc1ccccc1)C(=O)[C@@](C)(CI)OC(=O)COc1ccccc1 [20-19]

- Buffer pH = 7.4 % Conversion @ 1 hour [2]: 21.2%
Structure (SMILES): COC[C@H](NC(=O)c1cnc(C)s1)C(=O)N[C@@H](COC)C(=O)N[C@@H](Cc1ccccc1)C(=O)[C@](C)(O)COS(=O)(=O)CC(F)(F)F [20-4]

- Human Liver S9 % Conversion @ 1 hour [1]: 29%
Structure (SMILES): COC[C@H](NC(=O)c1cnc(C)s1)C(=O)N[C@@H](COC)C(=O)N[C@@H](Cc1ccccc1)C(=O)[C@@](C)(CI)OC=O [20-24]

- Human Liver S9 % Conversion @ 1 hour [1]: 22%
Structure (SMILES): COC[C@H](NC(=O)c1cnc(C)s1)C(=O)N[C@@H](COC)C(=O)N[C@@H](Cc1ccccc1)C(=O)[C@@](C)(CI)OC(=O)CCl [20-23]

- Human Liver S9 % Conversion @ 1 hour [1]: 3%
Structure (SMILES): COC[C@H](NC(=O)c1cnc(C)s1)C(=O)N[C@@H](COC)C(=O)N[C@@H](Cc1ccccc1)C(=O)[C@@](C)(CI)OC(=O)CCCCSC(C)=O [20-10]

- Buffer pH = 7.4 % Conversion @ 1 hour [2]: 4.2%
Structure (SMILES): CCCCS(=O)(=O)OC[C@@](C)(O)C(=O)[C@H](Cc1ccccc1)NC(=O)[C@H](COC)NC(=O)[C@H](COC)NC(=O)c1cnc(C)s1 [20-7]
